How the values were obtained:
[1] = rats; cited from earlier work
[2] = Biodistribution in normal rats; type: in vivo, rats (Sprague–Dawley); settings: mean ± SD; for Percent injected dose in blood: i.v. tail vein
[3] = Biodistribution in rats with renal pedicle ligation; type: in vivo, rats (Sprague–Dawley)
[4] = Sprague-Dawley rats; cited from earlier work
[5] = rats with renal pedicle ligation, 60 min post-injection, mean ± SD, n=5

In the case of `N#Cc1cc(C(=O)NCC(=O)O)ccc1[18F]` [^18F-CNPFH, ^18F-m-cyano-p-fluorohippurate], the Route of elimination [1] is given as “eliminated by both renal and hepatobiliary pathways”.

In the case of `O=C(O)CNC(=O)c1ccc([18F])cc1` [^18F-PFH, ^18F-p-fluorohippurate], the Route of elimination [1] is listed as “rapidly and exclusively cleared by the kidneys”.

With `O=C(O)CNC(=O)c1ccccc1[131I]` [^131I-OIH, ^131I-o-iodohippurate] the “Percent injected dose in blood” value ([2]; 10 min post-injection, n=7) was 5.1 ± 0.5 % ID, the “Percent injected dose in bowel (intestines and stomach)” value (“Percent injected dose in bowel” below) ([2]; 10 min post-injection, n=7) was 1.7 ± 0.5 % ID and the “Percent injected dose in kidney” value ([2]; 10 min post-injection, n=7) was 5.3 ± 1.2 % ID. For the same compound, the “Percent injected dose in liver” value ([2]; 10 min post-injection, n=7) was 3.3 ± 0.2 % ID, the “Percent injected dose in urine” value ([2]; 10 min post-injection, n=7) was 50.8 ± 5.2 % ID and the “Percent injected dose in blood” value ([2]; 60 min post-injection, n=5) was 0.8 ± 0.1 % ID. For the same compound, the “Percent injected dose in bowel” value ([2]; 60 min post-injection, n=5) was 1.8 ± 0.3 % ID, the “Percent injected dose in kidney” value ([2]; 60 min post-injection, n=5) was 0.7 ± 0.4 % ID and the “Percent injected dose in liver” value ([2]; 60 min post-injection, n=5) was 0.6 ± 0.2 % ID. The “Percent injected dose in urine” value ([2]; 60 min post-injection, n=5) was 85.4 ± 3.1 % ID, the “Percent injected dose remaining in the spleen, heart and lung” value ([3]; rats with ligated renal pedicles, 60 min) was “less than 1%” and the “Percent injected dose in blood” value [3, 5] was 15.1 ± 0.9 % ID. For the same compound, the “Percent injected dose in bowel” value [3, 5] was 7.6 ± 1.1 % ID, the “Percent injected dose in kidney” value [3, 5] was 0.5 ± 0.2 % ID and the “Percent injected dose in liver” value [3, 5] was 7.1 ± 0.6 % ID.

In the case of ^125I-iothamalate, the “Clearance as percentage of the clearance of ^131I-OIH” value [4] is given as 40%.

— PMC3964607 (Nuclear medicine and biology, 2013)
